Test results as given in publication PMC2673089 (Journal of pharmaceutical sciences, 2008).
Marks after values point to notes of the source that are not given here.

Columns and labels:
DA uptake = details: read-out: DA Uptake IC50; mean ± SEM; cited from earlier work
MDCK-MDR1 monolayers [1] = assay: Bidirectional transport and verapamil inhibition across MDCK-MDR1 monolayers; type: in vitro ADME; details: MDCK-MDR1
Caco-2 monolayers [2] = assay: Bidirectional transport and verapamil inhibition across Caco-2 monolayers; type: in vitro ADME; details: 0.1 mM, absence of verapamil, mean ± SD (n = 3)
[3] = tested on: extracellular levels of DA in the nucleus accumbens (NAc); details: cited from earlier work
Caco-2 monolayers [4] = details: Caco-2 monolayer characterization; cited from earlier work
MDCK-MDR1 monolayers [5] = details: MDCK-MDR1 monolayer characterization; cited from earlier work
[6] = 0.1 mM, absence of verapamil, mean ± SD (n = 3)

## CN1[C@@H]2CC[C@H]1C[C@@H](OC(c1ccccc1)c1ccccc1)C2 [BZT, benztropine, reference compound]
DA uptake
  IC50: 403 ± 115 nM

## C[N+]1(C)C2CCC1CC(OC(c1ccc(F)cc1)c1ccc(F)cc1)C2 (stereo not drawn) [JHW 025, N-(dimethyl)-3α-[(bis-4′-fluorophenyl)methoxy]tropane, reference compound]
MDCK-MDR1 monolayers [1]; 0.1 mM, Papp(B-A)/Papp(A-B)
  Efflux Ratio: 1.5
MDCK-MDR1 monolayers [1]; [6]
  Papp A-B: 5.00 ± 0.31 × 10^−6 cm/s
  Papp B-A: 7.39 ± 1.17 × 10^−6 cm/s
MDCK-MDR1 monolayers [1]; verapamil 200 μM
  Enhancement ratio of A-B transport by verapamil: 1.2
Caco-2 monolayers [2]
  Papp A-B: <0.34 ^a × 10^−6 cm/s
  Papp B-A: 1.8 ± 0.25 × 10^−6 cm/s

## COC(=O)[C@H]1[C@@H](OC(=O)c2ccccc2)C[C@@H]2CC[C@H]1N2C [cocaine]
[3]; 3 mg/kg i.v., similar microdialysis technique, ref Baumann et al.[41]
  DA increase: six-fold
[3]; 5 mg/kg i.v., identical stereotaxic coordinates
  DA elevation: 10 fold

## CC(C)NCC(O)COc1cccc2ccccc12 (centres unmarked) [propranolol]
Caco-2 monolayers [4]
  Papp of marker compounds: 13.34 ×10⁻⁶ cm/s
MDCK-MDR1 monolayers [5]
  Papp of marker compounds: 24.33 ×10⁻⁶ cm/s
